Source: US20240374561A1, “METHOD FOR PREVENTING NITRATION OF TYROSINE RESIDUES IN HEPATOCYTE GROWTH FACTOR USING TRISULFIDE COMPOUND” (KYUSHU UNIVERSITY, NATIONAL UNIVERSITY CORPORATION, priority 2021, published 2024)

Tests used:
[1] = molecular target: T1, recombinant mouse HGF (Mus musculus, UniProt Q08048); test: Inhibition of nitration of recombinant HGF protein by peroxynitrite (ONOO-), Western blot with anti-nitrotyrosine antibody; format: biochemical; conditions: for inhibit nitration of tyrosine residues in HGF: summary statement
T1 construct: purchased R&D Systems 2207-HG-025/CF
T1 sequence (Q08048 33-728): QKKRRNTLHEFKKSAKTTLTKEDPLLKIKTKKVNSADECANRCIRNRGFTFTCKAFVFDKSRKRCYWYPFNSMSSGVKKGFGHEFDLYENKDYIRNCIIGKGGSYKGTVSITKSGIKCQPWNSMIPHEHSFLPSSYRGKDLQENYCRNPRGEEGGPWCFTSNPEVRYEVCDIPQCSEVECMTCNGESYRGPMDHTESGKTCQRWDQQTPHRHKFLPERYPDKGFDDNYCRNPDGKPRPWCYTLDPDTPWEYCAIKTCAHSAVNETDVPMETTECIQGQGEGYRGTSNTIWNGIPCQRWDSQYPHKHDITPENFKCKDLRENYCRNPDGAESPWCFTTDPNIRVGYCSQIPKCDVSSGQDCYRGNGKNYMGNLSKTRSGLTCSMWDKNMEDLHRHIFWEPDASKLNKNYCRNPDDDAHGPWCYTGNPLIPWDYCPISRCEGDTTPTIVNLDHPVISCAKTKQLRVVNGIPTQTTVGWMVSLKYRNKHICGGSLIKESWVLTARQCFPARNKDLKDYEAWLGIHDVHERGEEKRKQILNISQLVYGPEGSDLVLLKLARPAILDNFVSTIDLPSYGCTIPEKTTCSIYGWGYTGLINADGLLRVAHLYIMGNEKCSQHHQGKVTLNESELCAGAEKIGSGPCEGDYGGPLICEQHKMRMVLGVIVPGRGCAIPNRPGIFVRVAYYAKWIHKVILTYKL
Method: GSSSG dihydrate produced by the method described in Patent Literature 1 was added to and mixed with a purified preparation of recombinant mouse HGF (2207-HG-025/CF, manufactured by R&D Systems, carrier free) dissolved in PBS such that the molar ratio of HGF:GSSSG was 1:10, 1:50, or 1:400 to prepare samples. A sample was also prepared in which GSSSG dihydrate was not added and the molar ratio of HGF:GSSSG was 1:0. Peroxynitrite (ONOO^−) was immediately added to each sample such that the molar ratio of HGF:ONOO^− was 1:500. The samples were held at pH 7.2 to 7.4 and 25 to 37° C. for 30 minutes (nitrating treatment) to give nitrated samples.
The obtained nitrated samples were subjected to Western blotting in accordance with a conventional method. The nitrated samples were treated with a solution containing SDS and β-mercaptoethanol to give samples for reduced SDS-PAGE. A 10% polyacrylamide gel was used for electrophoresis. The material of the transfer membrane used was nitrocellulose. HRP-labeled anti-nitrotyrosine monoclonal antibody (catalog number: sc-32757 HRP, manufactured by Santa Cruz Biotechnology) and HRP-labeled anti-HGF monoclonal antibody (catalog number: sc-374422 HRP, manufactured by Santa Cruz Biotechnology) were used. The immune response was recorded on an imaging device using ECL reagents. Nitrated bovine serum albumin (BSAnitro) was used as a positive control sample. PL (Protein Ladder) and MW-STD (Molecular Weight-Standard) in FIG. 1 are molecular weight markers. Further, material A in FIG. 1 means GSSSG.
Nitration treatment and Western blotting were performed in the same manner as in Example 1 except that lipoic acid trisulfide was used instead of GSSSG and the molar ratio of HGF:ONOO was set to 1:4000. In FIG. 1, material B means lipoic acid trisulfide.

[2] = Solubility in water at 20° C.; format: physicochemical; conditions: free lipoic acid trisulfide

Row | Compound | reaction intensity with the anti-nitrotyrosine antibody (nitration of tyrosine residues in HGF) ([1]; molar ratio HGF:GSSSG 1:0, 1:10, 1:50, 1:400, HGF:ONOO- 1:500, pH 7.2 to 7.4, 25 to 37° C., 30 minutes, FIG. 1) | inhibit nitration of tyrosine residues in HGF [1] | Lipoic acid trisulfide Solubility [2] [µg/mL] | reaction intensity with the anti-nitrotyrosine antibody (nitration of tyrosine residues in HGF) ([1]; increasing molar ratio of lipoic acid trisulfide, HGF:ONOO 1:4000, otherwise as Example 1, FIG. 2)
1 | N[C@@H](CCC(=O)N[C@@H](CSSSC[C@H](NC(=O)CC[C@H](N)C(=O)O)C(=O)NCC(=O)O)C(=O)NCC(=O)O)C(=O)O [GSSSG, glutathione trisulfide] | decreased with an increase in the molar ratio of GSSSG added | in a concentration-dependent manner | – | –
2 | O=C(O)CCCC[C@@H]1CCSSS1 [Lipoic acid trisulfide R body, (R)-lipoic acid trisulfide] | – | – | 300 | –
3 | O=C(O)CCCCC1CCSSS1 (centres unmarked) [lipoic acid trisulfide] | – | in a concentration-dependent manner | – | decreased with an increase in the molar ratio of lipoic acid trisulfide added
